Reference: patent US8952054B2, “Small molecule inhibitors of MUC1 and methods of identifying the same” (Dana-Farber Cancer Institute, Inc., priority 2010, dated 2015)

Columns and labels:
BT474 cells = experiment: BT474 viability (MTS) and colony formation; type: cell-based, human
Description: (§1) FIGS. 16A-D—Effects of apigenin on breast cancer cells without and with endogenous MUC1 expression. (FIG. 16A) Lysates from human MCF-7, HCC1937 and BT474 cells were immunoblotted with the indicated antibodies. (FIG. 16B) BT474 cells were treated with indicated concentrations of apigenin and baicalein for 3 d, washed and then treated for an additional 3 d. Lysates were immunoblotted with the indicated antibodies. (FIG. 16C) BT474 (triangles) and HCC1937 (squares) cells were treated with apigenin for 3 d. Viable cell numbers were determined by MTS assay. The results (mean+SD of 3 determinations) are expressed as percentage of control growth in the presence of DMSO. (FIG. 16D) BT474 cells were plated at a density of 5000 cells/6 cm dish. At 24 h after seeding, DMSO or apigenin at concentrations of 25, 50 and 75 μM was added to the medium. After 2 weeks, colonies were stained with crystal violet. The results (mean+SD of 3 determinations) are expressed as percentage of control colony formation in the presence of DMSO.

MUC1-C [1] = target: T1, MUC1-C (Homo sapiens, UniProt P15941); experiment: Immunoblot of MUC1-C expression in BT474 cells; type: cell-based; parameters: endogenous in cells; details: BT474, 3 d then additional 3 d
T1 sequence (P15941 1098-1255 limits assumed): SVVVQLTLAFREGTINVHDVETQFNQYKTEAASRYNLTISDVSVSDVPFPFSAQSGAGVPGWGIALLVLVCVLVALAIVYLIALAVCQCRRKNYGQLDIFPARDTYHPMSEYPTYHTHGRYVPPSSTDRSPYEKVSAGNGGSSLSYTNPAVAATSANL
Description: as §1

ZR-75-1/MUC1siRNA cells = experiment: Viable cell number by trypan blue exclusion, ZR-75-1/MUC1siRNA; type: cell-based, human; details: 5 μM, versus ZR-75-1/vector
Description: FIGS. 4A-E. Selectivity of MUC1/CQC for MUC1 expressing breast cancer cells. (FIG. 4A) ZR-75-1 cells were stably infected with an empty lentivirus (vector) or one expressing a MUC1 siRNA. Lysates for the infected cells were immunoblotted with the indicated antibodies. (FIG. 4B) ZR-75-1/vector cells were left untreated (diamonds), and ZR-75-1/vector (squares) and ZR-75-1/MUC1 siRNA (triangles) cells were treated with 5 μM MUC1/CQC peptide for the indicated times. Viable cell number was determined by trypan blue exclusion. (FIG. 4C) 293 cells were left untreated (diamonds), and treated with 5 μM MUC1/CQC (squares) or MUC1/AQA (triangles) for the indicated times. Viable cell number was determined by trypan blue exclusion. (FIG. 4D) MCF-10A cells were left untreated (left panel), and treated with 5 μM MUC1/CQC (middle panel) or MUC1/AQA (right panel). At 3 d, cells were analyzed for cell cycle distribution. […] Viable cell number was determined by trypan blue exclusion.
Human breast cancer ZR-75-1, ZR-75-1/vector, ZR-75-1/MUC1siRNA (Ren et al., 2004) cell lines were grown in RPMI1640 medium supplemented with 10% heat-inactivated fetal bovine serum (HI-FBS), 100 U/ml penicillin, and 100 μg/ml streptomycin (Invitrogen) in a humidified incubator at 37° C. and 5% CO2. […] Viability was determined by trypan blue exclusion.

MUC1-C [2] = target: T1, MUC1-C; experiment: Immunoblot of nuclear MUC1-C levels in MCF-7 cells (peptide); type: cell-based; parameters: Human ZR-75-1 and MCF-7 breast cancer cells overexpress endogenous MUC1; endogenous in cells; host or cells: ZR-75-1; MCF-7; details: MCF-7, 5 μM peptide, 3 d
Description: FIGS. 2A-C. MUC1/CQC peptide blocks nuclear localization of MUC1-C. (FIG. 2A) ZR-75-1 cells were incubated with 5 μM FITC-labeled MUC1/CQC peptide for the indicated times and then analyzed by flow cytometry. The mean fluorescence index (MFI) is included in each of the panels. (FIGS. 2B-C) ZR-75-1 (FIG. 2B) and MCF-7 (FIG. 2C) cells were incubated in the presence of 5 μM MUC1/CQC or MUC1/AQA peptide for 3 d. Whole cell lysates (WCL) (left panels) and nuclear lysates (right panels) were immunoblotted with the indicated antibodies.
Whole cell and nuclear lysates were prepared as described (Leng et al., 2007). Soluble proteins were subjected to immunoprecipitation with anti-Flag (Sigma, St. Louis, Mo.). Immunoprecipitates and soluble proteins were analyzed by immunoblotting with anti-His (Cell Signaling Technology, Danvers, Mass.), anti-GFP (Millipore, Danvers, Mass.), anti-Flag, anti-MUC1-C (Ab1; NeoMarkers, Fremont, Calif.), anti-lamin B (EMD, La Jolla, Calif.) or anti-β-actin (Sigma). Reactivity was detected with horseradish peroxidase-conjugated second antibodies and chemiluminescence.

Question: `O=c1cc(-c2ccc(O)cc2)oc2cc(O)cc(O)c12` [Apigenin, 4′,5,7-trihydroxyflavone] was tested. Which clonogenic survival (BT474 cells; BT474, 25, 50 and 75 μM, 2 weeks) did it give?
Answer: concentration dependent decreases in clonogenic survival

Question: And the “viability (MTS)” value (BT474 cells; BT474, 3 d)?
Answer: loss of viability

Question: And the MUC1-C expression (MUC1-C [1])?
Answer: downregulation of MUC1-C expression

Question: For `CC[C@H](C)[C@H](NC(=O)[C@H](CC(=O)O)NC(=O)[C@H](CC(C)C)NC(=O)[C@H](CCC(N)=O)NC(=O)CNC(=O)[C@H](Cc1ccc(O)cc1)NC(=O)[C@H](CC(N)=O)NC(=O)[C@H](CCCCN)NC(=O)[C@H](CCCNC(=N)N)NC(=O)[C@H](CCCNC(=N)N)NC(=O)[C@H](CS)NC(=O)[C@H](CCC(N)=O)NC(=O)[C@H](CS)NC(=O)[C@@H](CCCNC(=N)N)NC(=O)[C@@H](CCCNC(=N)N)NC(=O)[C@@H](CCCNC(=N)N)NC(=O)[C@@H](CCCNC(=N)N)NC(=O)[C@@H](CCCNC(=N)N)NC(=O)[C@@H](CCCNC(=N)N)NC(=O)[C@@H](CCCNC(=N)N)NC(=O)[C@@H](CCCNC(=N)N)NC(=O)[C@H](N)CCCNC(=N)N)C(=O)N[C@@H](Cc1ccccc1)C(=O)N1CCC[C@H]1C(=O)O` [MUC1/CQC], which “growth / viable cell number” value (ZR-75-1/MUC1siRNA cells) is on record?
Answer: substantially less effect

Question: What about the “nuclear MUC1-C levels” value (MUC1-C [2]) of the same molecule?
Answer: down-regulation of nuclear MUC1-C levels
